Test results taken from patent publication US10894817B2, “Fatty acid modified urocortin-2 analogs for the treatment of diabetes and chronic kidney disease” (priority 2016, dated 2021).
Several values for one entry are separate records, joined by “and”; a condition that tells them apart may be missing. Equal entries are not always repeated. Starred links: 1 amine or outer side, 2 acyl side, 3 side chain; linkers in the order of their positions; H or OH if unused. Non-standard residues stand in square brackets, D forms with d. Residues, ends and D or L forms follow the SMILES beside them. Groups on a side chain read outwards from the residue. *: point of attachment. C20 diacid = O=C(O)CCCCCCCCCCCCCCCCCCC(=O)*; C18 diacid = O=C(O)CCCCCCCCCCCCCCCCC(=O)*; γGlu = O=C(O)[C@H](CCC(=O)[*:2])N[*:1]; NMeI = CC[C@H](C)[C@H](NC)C(=O)O; AEEA = NCCOCCOCC(=O)O

What was measured:
human CRHR1 = biological target: T1, human CRHR1 (Homo sapiens, UniProt P34998); experiment: human CRHR1 cell-based cAMP assay (Y79 cells); conditions: Y79 cells with endogenous human CRHR1, mean ± SEM of runs, read-out: hCRHR1 Average EC50
T1 construct: which expresses endogenous human CRHR1; host or cells: Y79 human retinoblastoma cells
T1 sequence (P34998 24-415): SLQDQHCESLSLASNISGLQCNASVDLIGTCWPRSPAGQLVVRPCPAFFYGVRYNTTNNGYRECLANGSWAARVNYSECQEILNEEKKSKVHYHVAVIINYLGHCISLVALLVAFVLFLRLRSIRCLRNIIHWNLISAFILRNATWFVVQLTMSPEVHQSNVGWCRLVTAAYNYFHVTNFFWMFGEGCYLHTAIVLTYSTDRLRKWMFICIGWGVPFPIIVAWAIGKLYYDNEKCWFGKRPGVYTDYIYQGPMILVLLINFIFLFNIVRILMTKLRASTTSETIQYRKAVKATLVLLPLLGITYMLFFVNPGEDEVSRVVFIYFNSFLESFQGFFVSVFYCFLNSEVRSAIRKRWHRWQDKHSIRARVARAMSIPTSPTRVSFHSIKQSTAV
Description: CRHR agonistic activity is measured in a cell-based cAMP assay. Serial dilutions of the test peptides are made in assay buffer containing Hank's Balanced Salt Solution (HBSS, without phenol red) supplemented with 20 mM HEPES and 0.05% lactalbumin enzymatic hydrolysate (LAH) (“assay buffer”). The highest concentration that is used starts from 1 μM in the human CRHR2b, whereas 100 μM starting concentration is used in the human CRHR1 assay. A one to three dilution of the test peptides is used in both assays.
The human Retinoblastoma cell line Y79 (ATCC #HTB-18), which expresses endogenous human CRHR1, is used in the human CRHR1 assay. The cells are grown in RPMI 1640 (Hyclone, #SH30255) containing 20% fetal bovine serum and 10 mM HEPES, in suspension culture. Cells are centrifuged to remove the culture media and washed once in HBSS supplemented with 20 mM HEPES. The cells are resuspended in the assay buffer and 20,000 cells are used per treatment in the human CRHR1 assay.
The cells are dispensed into Costar 96-well black polystyrene half area EIA/RIA plates (Corning Incorporated, Corning, N.Y.) followed by the addition of the diluted peptides, each at a volume of 20 μL. The agonist induced cAMP levels are detected using a HTRF cAMP Dynamic 2 kit (CisBio, Bedford, Mass.). After incubation at 37° C. for 30 min, the assay is stopped by cell lysis via the addition of 20 μL of d2-labeled cAMP and followed by 20 μL of cryptate-labeled anti-cAMP antibody, as described by the manufacturer. Cellular cAMP (as a result of agonist stimulation) competes with the d2-labeled cAMP for binding to the antibody. HTRF detection is performed on an Envision plate reader (Perkin Elmer Life and Analytical Sciences, Waltham, Mass.) by measuring ratiometric emission at 620 and 665 nm after excitation at 320 nm.
The data are converted to picomoles of cAMP using a standard curve obtained from the same assay performed with varying concentrations of unlabeled cAMP. Percent of the maximum activation of the cells is calculated using converted picomole cAMP data by comparing to the amount of cAMP produced by 1 μM human UCN2 for the human CRHR2b or 1 μM human UCN1 for the human CRHR1 assay. The data are analyzed using a Curve Fitting Tool to calculate ED50. Numeric values shown below in Table 1 represent the mean of multiple runs (number of runs shown in parentheses) following the mean value±SEM.

[1] = Pharmacokinetics, single subcutaneous dose, monkeys; conditions: for half-life: T1/2, male Cynomolgus monkeys
Description: Plasma concentrations of compounds were determined by LC/MS methods. Each method measured the intact compound; peptide plus linked time extension. For each assay, the compound and an analog, used as an internal standard (IS), were extracted from 100% mouse, rat or monkey plasma (25 μl) using acetonitrile. Two distinct layers were formed upon centrifugation with the compound and the IS located in the supernatant layer. An aliquot of the supernatant (80 μl) was transferred to a Thermo Protein Precipitation Plate with water (150 μl) and formic acid (25 μl) followed by mixing. A final 31% acetonitrile in 10% formic acid sample (10 μl) was loaded onto a Supelco Analytical Discovery BIO Wide Pore C5-3 column (5 cm×1 mm, 3 μm). The column effluent was directed into a Thermo Q-Exactive mass spectrometer for detection and quantitation.
Male Cynomolgus monkeys were administered a single subcutaneous dose or intravenous dose (96.4 nmol/kg) of a compound described herein in 20 mM Tris-HCl Buffer (pH 7) at a volume of 1 mL/kg. Blood was collected from each animal at 2, 6, 24, 48, 72, 96, 168, 240, 336, 408, and 504 hours postdose for pharmacokinetic characterization.
Male Cynomolgus monkeys were also administered a single subcutaneous dose (50 nmol/kg) of a compound described herein in 20 mM Tris-HCl Buffer (pH 8) at a volume of 0.26 mL/kg. Blood was collected from each animal at 3, 6, 12, 24, 48, 72, 96, 120, 168, 192, 240, 336, 408, and 504 hours postdose for pharmacokinetic characterization.

[2] = male Cynomolgus monkeys, single 96.4 nmol/kg s.c., individual animal
[3] = male, cynomolgus monkey, plasma, sc, 96.4 nmol/kg
[4] = male Cynomolgus monkeys, single 50 nmol/kg s.c., individual animal
[5] = male, cynomolgus monkey, plasma, sc, 50 nmol/kg

AUC(0-inf) [1, 4] | CL/F [1, 4] [mL/day/kg] | Cmax [1, 4] | T1/2 [1, 4] [h] | AUC(0-inf) [1, 5] [µM·h] | Cmax [1, 5] [nM] | CL/F ([1]; male, cynomolgus monkey, plasma, sc, 50 nmol/kg, CL/F, male Cynomolgus monkeys, single 50 nmol/kg s.c., Mean) [mL/day/kg] | CL/F ([1]; male, cynomolgus monkey, plasma, sc, 50 nmol/kg, CL/F, male Cynomolgus monkeys, single 50 nmol/kg s.c., individual animal) [mL/day/kg] | half-life ([1]; male, cynomolgus monkey, plasma, sc, 50 nmol/kg, single 50 nmol/kg s.c., Mean) [h] | half-life ([1]; male, cynomolgus monkey, plasma, sc, 50 nmol/kg, single 50 nmol/kg s.c., individual animal) [h] | Tmax ([1]; male, cynomolgus monkey, plasma, sc, 50 nmol/kg, Tmax, male Cynomolgus monkeys, single 50 nmol/kg s.c., Mean) [h] | Tmax ([1]; male, cynomolgus monkey, plasma, sc, 50 nmol/kg, Tmax, male Cynomolgus monkeys, single 50 nmol/kg s.c., individual animal) [h] | SMILES | EC50 (human CRHR1) [µM] | Tmax ([1]; cynomolgus monkey, in vivo, sc, 96.4 nmol/kg, Tmax, male Cynomolgus monkeys, single 96.4 nmol/kg s.c., Mean) [h] | Tmax ([1]; cynomolgus monkey, in vivo, sc, 96.4 nmol/kg, Tmax, male Cynomolgus monkeys, single 96.4 nmol/kg s.c., individual animal) [h] | AUC(0-inf) [1, 2] | Cmax [1, 2] | Tmax [1, 2] [h] | AUC(0-inf) [1, 3] [µM·h] | Cmax [1, 3] [nM]
– | – | – | – | – | – | – | – | – | – | – | – | CC[C@H](C)[C@H](NC(C)=O)C(=O)N[C@H](C(=O)N[C@@H](CC(C)C)C(=O)N[C@@H](CO)C(=O)N[C@@H](CC(C)C)C(=O)N[C@@H](CC(=O)O)C(=O)N[C@H](C(=O)N1CCC[C@H]1C(=O)N[C@H](C(=O)NCC(=O)N[C@@H](CC(C)C)C(=O)N[C@@H](CC(C)C)C(=O)N[C@@H](CCC(N)=O)C(=O)N[C@H](C(=O)N[C@@H](CC(C)C)C(=O)N[C@@H](CC(C)C)C(=O)N[C@@H](CCC(=O)O)C(=O)N[C@@H](CCC(N)=O)C(=O)N[C@@H](CCC(=O)O)C(=O)N[C@@H](CCCCN)C(=O)N[C@@H](CCC(N)=O)C(=O)N[C@@H](CCC(=O)O)C(=O)N[C@@H](CCCCN)C(=O)N[C@@H](CCC(=O)O)C(=O)N[C@@H](CCCCN)C(=O)N[C@@H](CCC(N)=O)C(=O)N[C@@H](CCC(N)=O)C(=O)N[C@@H](C)C(=O)N[C@@H](CCCCNC(=O)COCCOCCNC(=O)COCCOCCNC(=O)CC[C@H](NC(=O)CC[C@H](NC(=O)CCCCCCCCCCCCCCCCCCC(=O)O)C(=O)O)C(=O)O)C(=O)N[C@H](C(=O)N[C@@H](CC(N)=O)C(=O)N[C@@H](C)C(=O)N[C@@H](CCC(N)=O)C(=O)N[C@H](C(=O)N[C@@H](CC(C)C)C(=O)N[C@@H](C)C(=O)N[C@@H](CCC(N)=O)C(=O)N[C@H](C(N)=O)C(C)C)[C@@H](C)CC)[C@@H](C)O)[C@@H](C)CC)[C@@H](C)CC)C(C)C)C(C)C [Example 2] (Ac-IVLSLDVPIGLLQILLEQEKQEKEKQQAK([AEEA-AEEA-γGlu-γGlu-C20 diacid])TNAQILAQV-NH2) | > 10 | 36 | 24 | 237.954 µM·h and 245.711 µM·h | 1238 nM and 1699 nM | 48 | 242 | 1470
69.88 µM·h and 58.414 µM·h | 20.6 | 441 nM and 432 nM | 70 | 64.1 | 437 | 19 | 17.3 | 85 | 101 | 36 | 48 | CC[C@H](C)[C@H](NC)C(=O)N[C@H](C(=O)N[C@@H](CC(C)C)C(=O)N[C@@H](CO)C(=O)N[C@@H](CC(C)C)C(=O)N[C@@H](CC(=O)O)C(=O)N[C@H](C(=O)N1CCC[C@H]1C(=O)N[C@H](C(=O)NCC(=O)N[C@@H](CC(C)C)C(=O)N[C@@H](CC(C)C)C(=O)N[C@@H](CCC(N)=O)C(=O)N[C@H](C(=O)N[C@@H](CC(C)C)C(=O)N[C@@H](CC(C)C)C(=O)N[C@@H](CCC(=O)O)C(=O)N[C@@H](CCC(N)=O)C(=O)N[C@@H](CCC(=O)O)C(=O)N[C@@H](CCCCN)C(=O)N[C@@H](CCC(N)=O)C(=O)N[C@@H](CCC(=O)O)C(=O)N[C@@H](CCCCN)C(=O)N[C@@H](CCC(=O)O)C(=O)N[C@@H](CCCCN)C(=O)N[C@@H](CCC(N)=O)C(=O)N[C@@H](CCC(N)=O)C(=O)N[C@@H](C)C(=O)N[C@@H](CCCCNC(=O)COCCOCCNC(=O)COCCOCCNC(=O)CC[C@H](NC(=O)CC[C@H](NC(=O)CCCCCCCCCCCCCCCCC(=O)O)C(=O)O)C(=O)O)C(=O)N[C@H](C(=O)N[C@@H](CC(N)=O)C(=O)N[C@@H](C)C(=O)N[C@@H](CCC(N)=O)C(=O)N[C@H](C(=O)N[C@@H](CC(C)C)C(=O)N[C@@H](C)C(=O)N[C@@H](CCC(N)=O)C(=O)N[C@H](C(N)=O)C(C)C)[C@@H](C)CC)[C@@H](C)O)[C@@H](C)CC)[C@@H](C)CC)C(C)C)C(C)C [Example 3] (H-[NMeI]VLSLDVPIGLLQILLEQEKQEKEKQQAK([AEEA-AEEA-γGlu-γGlu-C18 diacid])TNAQILAQV-NH2) | > 100 | – | – | – | – | – | – | –
